Several values for one entry are separate records, joined by “and”; a condition that tells them apart may be missing. Identical values can stand only once.
How the values were obtained:
[1] = system: animal models of inflammatory (formalin test) pain; conditions: administered locally; cited from earlier work
patients = conditions: cited from earlier work
[2] = system: subjects undergoing transpositional osteotomy (bunionectomy); assay: Bunionectomy Efficacy Study: VAS pain at operation site and rescue medication; type: in vivo, human; conditions: for VAS pain score at operation site (mean +/− SEM): 1000 μg into wound, n = 11
Method: The primary efficacy endpoint was the proportion of subjects in each treatment group requiring opioid analgesia in the first 24 hours post-operatively. The proportions were compared amongst treatment groups using the Cochran-Haenszel test. Secondary efficacy end points included: i) proportion of subjects in each treatment group requiring opioid analgesia in the first 36 hour period post-operatively (Similarly, the proportions were compared amongst treatment groups using the Cochran-Haenszel test); ii) proportion of subjects in each treatment group requiring opioid analgesia in the 10 day period post-operatively (Similarly, the proportions were compared amongst treatment groups using the Cochran-Haenszel test); iii) time to first usage of opioid analgesia in each treatment group (a survival analysis approach will be used: the product-limit (Kaplan-Meier) method will be applied to time to first usage of opioid analgesia. The median time to first usage of opioid analgesia will be estimated in both treatment groups. Pairwise comparisons will be performed to test for equality of the survival curves between the 2 treatment groups using both the log-rank and the Wilcoxon test); iv) total usage of analgesia in each treatment group (the total usage of analgesia will be compared by an analysis of variance with treatment and center as independent variables. A pairwise comparison will be performed between the treatment groups); and v) VAS, assessment of pain at the site of operation in each treatment group. (The VAS score at each time point will be compared by an analysis of variance with treatment and center as independent variables. A pairwise comparison will be performed between the treatment groups). […] The efficacy analysis was performed on the data obtained ten days postoperatively. The safety analysis was performed based on the safety data for the entire study, including the 6 week and 12 week follow-up periods. The blind was broken at the time the efficacy analysis was performed. However, the individual treatment assignment was available to the statistical analysis group only. All other personnel involved in the study, including the Investigator, study monitor and proprietary staff, remained blinded until the entire study was completed.
The study was designed to include 40 evaluation subjects. […] Each subject had six (6) study visits: a Screening Day (Day −28 to −1), an Operation Day (Day 0), and four (4) Follow-up visits (scheduled for Days 3, 10 and weeks 6 and 12).
On Operation Day (Day 0) the following was performed: a) Pre-operation: Prior to the initiation of an ankle block, inclusion/exclusion criteria assessment was performed. […] Immediately prior to wound closure, the Investigator slowly dripped the study medication (4 mL) from a syringe into the wound, ensuring even tissue exposure. The wound was then be closed according to normal practices and procedures.
In the 24 hours following administration of study medication, vital signs (supine pulse rate and blood pressure) were recorded at 1, 2, 4 and 24 hours post administration. VAS assessment of pain at the operation site was performed at 1, 4, 8, 12 and 24 hours post administration. In those instances where VAS measurements coincide with blood sampling procedures, the VAS assessment was performed first. […] The quantity of each blood sample was 10 mL. Laboratory safety assessments, e.g., haematology, biochemistry, urinalysis were performed at 24 hours post administration. Adverse events were spontaneously reported by the subject and recorded. Rescue analgesia medication was provided to the subject if required (initially diclofenac 50 mg, repeated at 8-hourly intervals if necessary). When diclofenac was judged by the Investigator to provide inadequate pain relief then the subject was provided with alfentanil 1 mg, repeated at 6 hourly intervals, if necessary.

[3] = parameters: species or system human; conditions: in vivo
Method: The pharmacokinetic parameters of Cmax, Tmax, AUC (0−tlast) and t½ were evaluated.

rats = conditions: systemic, final doses of 25 mg/kg or less; cited from earlier work
[4] = system: subjects with osteoarthritis of the knee; assay: Osteoarthritis of the Knee Safety Study: VAS pain score at the target knee; type: in vivo, human
Method: (§1) Each subject had 3 study visits: a Screening Day (Day −7 to −1), the Treatment Day (Day 0), and a Post-Treatment Day (scheduled for Day +2, +4, +7, or +14). On the Treatment Day the subject was randomized, pre-treatment evaluation was performed. The patients were brought into the procedure room, and a VAS pain score was taken (0 mm—no pain, 100 mm—extreme pain). Once the patient had marked his or her pain on the card, he/she was prepped for knee cannulation. Once the cannula was placed, the patient received by intra-articular infiltration, 3 mg/kg (maximum dose of 200 mg) of 2% lignocaine into the knee scheduled to be replaced.
(§2) VAS pain scores as well as verbal reports were taken immediately following administration, as well as prior to knee replacement surgery. No subjects discontinued from the study due to adverse events.
On the Post-Treatment Day, study evaluation was performed followed by the scheduled knee replacement, with intra-operative bone and soft tissue biopsies performed for subsequent examination. […] This therefore left the 3 placebo and 9 active patients from the 4 day, 7 day, and 14 day cohorts.

[5] = system: subjects with osteoarthritis of the knee; assay: Osteoarthritis of the Knee Safety Study: safety and tolerability of intra-articular purified capsaicin with local anesthetic; type: in vivo, human
Method: The primary objective of the study was to evaluate the safety and tolerability of intra-articular capsaicin, when co-administered with intra-articular local anesthetic, compared to placebo, in subjects with end-stage osteoarthritis of the knee, already scheduled to receive knee replacements.
The study was designed to include 16 evaluation subjects. […] Sixteen subjects completed the study.
Patients were treated randomly and in double-blind fashion in four treatment groups, with each group having a progressively longer interval between the intra-articular administration of study medication and subsequent total knee replacement (2, 4, 7, and 14 days). […] Gross and microscopic pathology analysis was completed for each treatment group before the next treatment group was treated.
as §1, §2

[6] = 1000 μg prior to wound closure, n=11
[7] = 10, 100, 300 μg intra-articular

For `CN(C)CCC=C1c2ccccc2CCc2ccccc21` [amitriptyline], the local antinociceptive action [1] is given as “produced local antinociceptive actions”.
For `CNCCCN1c2ccccc2CCc2ccccc21` [desipramine], the local antinociceptive action [1] is given as “produced local antinociceptive actions”.
In the case of `CN1C(C(=O)Nc2ccccn2)=C(O)c2ccccc2S1(=O)=O` [piroxicam], the “patients experiencing gross bleeding and ulceration” value (patients) is listed as “up to 4%”.
In the case of `COc1cc(CNC(=O)CCCC/C=C/C(C)C)ccc1O` [purified capsaicin, N-(4-hydroxy-3-methoxybenzyl)-8-methylnon-trans-6-enamide], the “VAS pain score at operation site (mean +/− SEM)” value (shortened to “VAS pain score … (mean +/− SEM)”) ([2]; 8 hr) is reported as 5.5 +/− 2.3, the “VAS pain score … (mean +/− SEM)” value ([2]; 12 hr) is reported as 8.2 +/− 3.8 and the “VAS pain score … (mean +/− SEM)” value ([2]; 24 hr) is reported as 1.9 +/− 1.0. For the same compound, the “VAS pain score … (mean +/− SEM)” value ([2]; 48 hr) was 5.9 +/− 2.5, the “subjects who did not rescue in 72 hours” value [2, 6] was 6 subjects and the “time at which individual subject required rescue” value [2, 6] was 1 h and 4 h and 5 h and 8 h and 12 h. The “plasma concentrations in the 10 μg dose group compared with the 100 μg or 300 μg dose groups” value [3] was “clearly lower”, the “effect on pain threshold” value (rats) was “did not elevate the pain threshold above normal range” and the “VAS reduction, prior to administration versus day of surgery” value ([4]; 9 active patients of the 4, 7 and 14 day cohorts, 10-300 μg pooled) was 62±14%. For the same compound, the “median decrease from baseline to pre-operative time point in VAS for pain at target knee, versus placebo” value ([4]; all 3 capsaicin dose groups) was “substantially greater”, the “treatment related indication of efficacy (VAS)” value ([4]; any of the dose levels (10 μg, 100 μg, 300 μg)) was “No clear treatment related indication of efficacy” and the “duration of post-administration (hyper)algesic pain, individual subject” value ([5]; 100 μg dose group) was 9 min. For the same compound, the “duration of post-administration (hyper)algesic pain, individual subjects” value ([5]; 300 μg dose group) was 17 minutes and 25 minutes (2×) and 42 minutes, the “effects on laboratory safety parameters or vital signs” value [5, 7] was “no treatment related effects on laboratory safety parameters or vital signs” and the “effects on soft tissue, cartilage, or bone upon histopathological examination” value [5, 7] was “no treatment related effects on soft tissue, cartilage, or bone”. For the same compound, the “erythema, edema, or hemorrhage at the site of injection” value [5, 7] was “no treatment related signs of erythema, edema, or hemorrhage”, the “leakage of study drug from the joint space” value [5, 7] was “low leakage” and the systemic side effects [5, 7] was “No treatment related systemic side effects”. For the same compound, the “gross and microscopic pathology” value ([5]; knee tissue at replacement 2-14 days after dose) was “normal”.

Source: patent US20090118242A1 (AlgoRx, priority 2002, published 2009)
